The values below come from article PMC12214536 (Nature Communications, 2025).

For the assay, the system named is A. fumigatus OE::sltA. The assay is classed as cell-based, Aspergillus fumigatus.

caspofungin: the “susceptibility of the sltA overexpression strain compared to wild-type” value is “comparable susceptibility to CAS”.
In the case of colistin, the “more tolerance of the sltA overexpression strain compared to wild-type” value amounted to 15%.
